Reference: patent US20110003805A1, “CONCOMITANT DRUG” (TAKEDA PHARMACEUTICAL COMPANY LIMITED, priority 2008, published 2011)

System: TS (thymidine) gene expression in human breast cancer cell line BT-474
Experiment: Measurement of expression amount of TS (thymidine) by addition of compound A, TaqMan
Assay type: cell-based
Conditions: BT-474 cells, 100 nmol/L, two days after addition, GAPDH as internal standard (FIG. 4)
Description: Human breast cancer cell line BT-474 (ATCC (American Type Culture Collection) catalog No. HTB-20, Lasfargues EY, In Vitro 15:723-729(1979)), which is a passage cultured HER2 high expressing cell, was treated with trypsin and suspended in RPMI-1640 medium (GibcoInvitrogen) containing 10% bovine fetus serum (GibcoInvitrogen). The cell density of the cell suspension was measured by cell counter Sysmex CDA500, and the cell density was adjusted to 5×10^4 cell/mL using the aforementioned medium. The suspension was dispensed to each well of a 6 well multi-well culture plate (Corning) by 2 mL, and cultured overnight at 37° C. under 5% CO2. […] Using this cDNA as a template, the TS expression amount was measured using TaqMan Gene Expression Assays (Applied Biosystems). […] Ct method (Applied Biosystems) with GAPDH as an internal standard (FIG. 4).

`CC(C)(O)CC(=O)NCCn1ccc2ncnc(Nc3ccc(Oc4cccc(C(F)(F)F)c4)c(Cl)c3)c21` [compound A, N-{2-[4-({3-chloro-4-[3-(trifluoromethyl)phenoxy]phenyl}amino)-5H-pyrrolo[3,2-d]pyrimidin-5-yl]ethyl}-3-hydroxy-3-methylbutaneamide] was tested. Which TS expression amount did it give?
The TS expression amount was “remarkably decreased”.
